We go through three compounds from US8178515B2, “β-hydroxy-γ-aminophosphonates and methods for the preparation and use thereof” (Nucitec S.A. de C.V., priority 2008, dated 2012).

Molecules are shown by their SMILES.

Series [1] relates to WRL-68 cells. In words: Utilization of glucose in hepatic cells, in vitro hyperglycemia model (glucose and glycogen levels). Type of series: cell-based, human. Particulars: 24 hours; for reduction of extracellular glucose levels: conditioned media, 30 mM D-glucose medium. On the procedure: WRL-68 cells were thawed and maintained in culture with Minimal Essential Medium (Gibco BRL) containing 4 mM Glutamine, 1% non essential aminoacids (Gibco BRL), 10% Fetal Calf Serum (FCS), and 100 μg/ml of ampicillin. WRL-68 cells were seeded at […] in complete media in 75 cm^2 cell culture flasks, cells were maintained for 24 hours at 37° C. under an atmosphere of 5% CO2. The medium was changed after 24 hr. Cells were passaged by trypsinization using a 0.025% trypsin solution containing 0.01% N,N,-di-ethyldithiocarbamic acid sodium salt (EDTA). In order to evaluate the effect of analog of carnitine on utilization of glucose levels a model of hyperglycemia in vitro (Nakajina et al., J. Biol. Chem. 275:20880-20886 (2000)) was developed. Two days after plating, the medium was changed to F-12K containing 7 mM D-glucose and 10% fetal bovine serum, and the culture was continued for 2 more days. The cells were then cultured in serum-free F-12K medium containing 30 mM D-glucose for 24 h. Cells were treated with the diastereomeric mixture of compound 7 at concentrations of 0.01, 0.1, 1,10, 100 μM, and 1 mM and 2 mM during 24 hours. Samples of conditioned media and cell lysates were kept to […]. Glucose and glycogen levels were measured by using a Glucose PAP-SL Kit (Tech, USA) and glycogen assay kit (Biovision Research Products, California, USA).

For the next series, the system named is chick embryos. In words: Teratogenicity assay in chick embryos. Particulars: for Deaths (embryos / total examined) / Embryonic region affected: Axial skeleton (abnormal embryos / total examined) / Embryonic region affected: CNS (abnormal embryos / total examined) / Embryonic region affected: Heart (abnormal embryos / total examined) / Embryonic region affected: Somites (abnormal embryos / total examined) / Embryonic region affected: Vasculature (abnormal embryos / total examined): 48 h of exposition. On the procedure: A teratogenicity assay was carried out as described by Jelinek et al., Func. Devel. Morph. 4:317-23 (1994). Fertile White Leghorn chicken eggs were obtained from A.L.P.E. S.A. (Puebla, Mexico) and were stored at 6° C. Sixty fertilized eggs were weighed, sterilized, and divided into […]. First group served as a non-treated control. The next three were exposed to the diastereomeric mixture of compound 7 (1, 10, and 100 μM). The last group received caffeine (10 mg/mL) and as positive control. Test solutions (1 mL) were added to the air sac under sterile conditions. Each solution was injected after drilling into the shell at the blunt end of the egg; after injection, the holes were immediately sealed with melted paraffin wax. The eggs were then transferred and maintained in a forced draft incubator at 37.5° C. with a relative humidity of 55% until the desired stage of development was reached.
To determine the concentration dependency of the diastereomeric mixture of compound 7, a histological analysis was carried out. Embryos in each group were fixed in buffered formal saline (pH 7.4), dehydrated, and embedded in paraffin blocks. Paraffin tissue sections of 6 μm were stained with acetocarmine for routine histological examination.

In series [2] the test system is WRL-68 cells.
Procedure: (§1) Two cell lines were used for this study: 293Q cells derived from normal epithelial cells of human fetal kidney (CRL-1573 ATCC) and WRL-68 cells derived from epithelial cells of human liver (CRL-48 ATCC). Cell lines were cultured in minimal essential medium (MEM, GIBCO BRL Inc., Grand Island, N.Y.), supplemented with nonessential amino acids (GIBCO BRL Inc., Grand Island, N.Y.), 10% fetal calf serum (GIBCO BRL Inc., Grand Island, N.Y.), 1-glutamine (2 mol/L), and antibiotics. Cells were plated in 100-mm culture dishes (10^6 cells/dish), and maintained at 37° C. under an atmosphere of 5% CO2 in humidified air. Subcultures were obtained by trypsinization (0.025% trypsin solution containing 0.01% N,N-diethyldithiocarbamic acid sodium salt, EDTA). For cytological investigation, 10^5 cells per mL of MEM medium were used. […] After incubation of the cells with the extract, they were collected for further cytological investigations.
(§2) Cells were incubated in 96-well plates. After 24 h, the medium was removed; the cells were washed twice with PBS and then incubated with analog. […] Cell viability was measured by a 3-(4,5-dimethylthiazol-2-yl)-2,5-diphenyltetrazolium bromide (MTT) assay (Wang et al., Journal Ocular. Pharm. Ther. 12: 35-43 (1996)). […] When the blue crystals were dissolved, the optical density was determined on a microplate reader at 450 nm. […]

Procedure for 293Q cells: as §1, §2

For the compound `CC(C)CC(C(O)CP(=O)(O)O)[N+](C)(C)C.[I-]` (single isomer, unassigned) [diastereomeric mixture of compound 7], the “reduction of extracellular glucose levels” value in the series on WRL-68 cells [1] (1 μM) stood at 16%; with WRL-68 cells [1] (10 μM), 18%; in the series with WRL-68 cells [1] (100 μM), 23%; in the series on WRL-68 cells [1] (1 mM), 30%; in the series on WRL-68 cells [1] (2 mM), 32%. In the series with WRL-68 cells [1] (2 mM), the cellular glycogen levels entry is “increase”. In addition, in the series with WRL-68 cells [1] (any concentration (0.01 μM to 2 mM)), the “changes in cellular glucose” value was “No changes”. In addition, in the series on chick embryos (in vivo), the “alterations in embryos (histological analysis)” value is “No alterations”. In addition, the “effects on cell proliferation (MTT)” value in the series on 293Q cells and in the series on WRL-68 cells [2] was “did not show citotoxicity or effects on cell proliferation” throughout.

With `Cn1c(=O)c2c(ncn2C)n(C)c1=O` [Caffeine, caffeine, reference compound], in the series with chick embryos (positive control, 10 mg/mL), the “Deaths (embryos / total examined)” value was 2/10, the “Embryonic region affected: Axial skeleton (abnormal embryos / total examined)” value was 10/10, the “Embryonic region affected: CNS (abnormal embryos / total examined)” value was 8/10 and the “Embryonic region affected: Heart (abnormal embryos / total examined)” value was 8/10. In the series on chick embryos (positive control, 10 mg/mL), the “Embryonic region affected: Somites (abnormal embryos / total examined)” value is listed as 8/10 and the “Embryonic region affected: Vasculature (abnormal embryos / total examined)” value is recorded as 6/10.

For `CC(C)C[C@@H]([C@@H](O)CP(=O)(O)O)[N+](C)(C)C.[I-]` [compound 7, (2R,3S)-(2-hydroxy-5-methyl-3-trimethylamonium-hexyl)-phosphonic acid; iodide], in the series with chick embryos (1 μM), the “Deaths (embryos / total examined)” value is listed as 0/10, the “Embryonic region affected: Axial skeleton (abnormal embryos / total examined)” value is 0/10, the “Embryonic region affected: CNS (abnormal embryos / total examined)” value is recorded as 0/10 and the “Embryonic region affected: Heart (abnormal embryos / total examined)” value was 0/10. In the series with chick embryos (1 μM), the “Embryonic region affected: Somites (abnormal embryos / total examined)” value is listed as 0/10 and the “Embryonic region affected: Vasculature (abnormal embryos / total examined)” value is 0/10. Moreover, in the series with chick embryos (100 μM), the “Deaths (embryos / total examined)” value is 0/10, the “Embryonic region affected: Axial skeleton (abnormal embryos / total examined)” value was 0/10, the “Embryonic region affected: CNS (abnormal embryos / total examined)” value was 0/10 and the “Embryonic region affected: Heart (abnormal embryos / total examined)” value was 0/10. In the series on chick embryos (100 μM), the “Embryonic region affected: Somites (abnormal embryos / total examined)” value was 0/10 and the “Embryonic region affected: Vasculature (abnormal embryos / total examined)” value is listed as 0/10. Also, in the series with chick embryos (1 mM), the “Deaths (embryos / total examined)” value was 0/10, the “Embryonic region affected: Axial skeleton (abnormal embryos / total examined)” value was 0/10, the “Embryonic region affected: CNS (abnormal embryos / total examined)” value is reported as 0/10 and the “Embryonic region affected: Heart (abnormal embryos / total examined)” value is 0/10. Moreover, in the series on chick embryos (1 mM), the “Embryonic region affected: Somites (abnormal embryos / total examined)” value is 0/10 and the “Embryonic region affected: Vasculature (abnormal embryos / total examined)” value was 0/10.
